Test [1] deals with Saccharomyces cerevisiae α-glucosidase. The test can be described thus: In-vitro α-glucosidase inhibition assay. It is filed as biochemical. Particulars: for IC50: n = 5 independent experiments in duplicate, read-out: α-glucosidase IC50 (range). How it is done:
The α-glucosidase activity assay was carried out as described previously ([Günther et al., 2021]). Briefly, 10 mM stock solutions of the arylbenzofurans (1—3) prepared in DMSO were diluted in water. Fifteen µl of these diluted moracin compounds were mixed in 96-well microtest plates (VWR, Darmstadt, Germany) with 105 μL of 0.1 M phosphate buffer, pH 6.8 and 15 μL of a 0.5 U/mL Saccharomyces cerevisiae α-glucosidase solution (Sigma-Aldrich, Taufkirchen, Germany). The final arylbenzofurans concentrations range from 0–200 μM, while the final concentration of the extract and fractions ranges from 100–500 μg/mL. […] Following 5 min pre-incubation at 37°C, the reaction was started with 15 μL of 10 mM p-nitrophenyl-α-D-glucopyranoside (Sigma-Aldrich, Taufkirchen, Germany). After 20 min at 37 °C, 50 μL 2 M Na2CO3 stop solution was added (VWR, Darmstadt, Germany). The absorbance was measured photometrically at 405 nm (iEMS Reader MF). Five independent experiments were performed in duplicate.
(§1) GraphPad Prism, version 5.0 was used for the statistical analysis of data, which were expressed as mean ± standard deviation. Multiple comparisons of IC50 values were carried out by using one-way ANOVA followed by Tukey’s test.

Test [2] has as its target T1, porcine pancreatic α-amylase (Sus scrofa, UniProt P00690).
T1 sequence (P00690 16-511): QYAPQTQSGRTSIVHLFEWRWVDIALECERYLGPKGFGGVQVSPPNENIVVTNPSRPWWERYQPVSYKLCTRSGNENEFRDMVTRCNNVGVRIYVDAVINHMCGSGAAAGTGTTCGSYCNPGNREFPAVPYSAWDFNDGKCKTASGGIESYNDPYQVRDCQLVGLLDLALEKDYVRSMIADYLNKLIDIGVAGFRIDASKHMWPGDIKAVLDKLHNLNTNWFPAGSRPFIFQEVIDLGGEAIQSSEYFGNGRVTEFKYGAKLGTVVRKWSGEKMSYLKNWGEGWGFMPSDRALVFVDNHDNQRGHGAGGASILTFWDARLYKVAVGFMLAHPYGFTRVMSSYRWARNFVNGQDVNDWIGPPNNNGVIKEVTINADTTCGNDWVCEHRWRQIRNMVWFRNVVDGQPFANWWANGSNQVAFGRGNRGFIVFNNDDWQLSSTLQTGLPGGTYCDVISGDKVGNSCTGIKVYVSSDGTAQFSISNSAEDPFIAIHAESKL
The test can be described thus: In-vitro α-amylase inhibition assay. Particulars: n = 2 independent experiments in duplicate; read-out: α-amylase IC50 (range). It is filed as biochemical. How it is done: To this end, moracins, extracts, and fraction stocks were diluted with water to give concentrations of 1,000 and 3,000 μg/mL. Of these dilutions, 15 μL were mixed with 35 µL distilled H2O and 50 μL of porcine pancreatic α-amylase (2.5 U/mL) in 20 mM sodium phosphate buffer containing 6.7 mM NaCl, pH 6.9. Following 10 min pre-incubation at 25°C, 50 μL 1% starch solution that had been cooked for 15 min in the same buffer was added to start the reaction. After 10 min at 25°C, 100 μL of a color reagent (1% 3,5-dinitrosalicylic acid and 30% sodium potassium tartrate in 0.4 M NaOH, all chemicals from Sigma-Aldrich, Taufkirchen, Germany) were added. The mixture was incubated for an additional 5 min at 100 °C and cooled to room temperature before the absorbance was measured at 540 nm by a microplate reader (iEMS Reader MF, MTX Lab Systems, Helsinki, Finland). […] The percentage inhibition of α-amylase was calculated by using the following equation: Inhibition%=AbC−AbCblank−AbS−AbSblank/AbC−AbCblank×100 AbC, absorbance of the control; AbS, absorbance of the sample.
as §1

The subject of test [3] is chronic hepatitis C virus (HCV) cell. More on the design: method as in Hyun et al., 2007. Particulars: antiviral assay; ref Hyun et al., 2007; read-out: IC50 against HCV cell; cited from earlier work.
A further test deals with H9c2 cells. More on the design: method as in Zheng et al., 2017. Particulars: doxorubicin-induced myocardial toxicity in H9c2 cells; ref Zheng et al., 2017; read-out: EC50 cytoprotective effect; cited from earlier work.
Test [4] deals with protein tyrosine phosphatase 1B (PTP1B). More on the design: method as in Cui et al., 2006. Particulars: ref Cui et al., 2006; cited from earlier work.
The target in test [5] is T2, human recombinant DPP4 enzyme (Homo sapiens, UniProt P27487).
T2 construct: purchased abcam, Berlin, Germany
T2 sequence (P27487 whole entry): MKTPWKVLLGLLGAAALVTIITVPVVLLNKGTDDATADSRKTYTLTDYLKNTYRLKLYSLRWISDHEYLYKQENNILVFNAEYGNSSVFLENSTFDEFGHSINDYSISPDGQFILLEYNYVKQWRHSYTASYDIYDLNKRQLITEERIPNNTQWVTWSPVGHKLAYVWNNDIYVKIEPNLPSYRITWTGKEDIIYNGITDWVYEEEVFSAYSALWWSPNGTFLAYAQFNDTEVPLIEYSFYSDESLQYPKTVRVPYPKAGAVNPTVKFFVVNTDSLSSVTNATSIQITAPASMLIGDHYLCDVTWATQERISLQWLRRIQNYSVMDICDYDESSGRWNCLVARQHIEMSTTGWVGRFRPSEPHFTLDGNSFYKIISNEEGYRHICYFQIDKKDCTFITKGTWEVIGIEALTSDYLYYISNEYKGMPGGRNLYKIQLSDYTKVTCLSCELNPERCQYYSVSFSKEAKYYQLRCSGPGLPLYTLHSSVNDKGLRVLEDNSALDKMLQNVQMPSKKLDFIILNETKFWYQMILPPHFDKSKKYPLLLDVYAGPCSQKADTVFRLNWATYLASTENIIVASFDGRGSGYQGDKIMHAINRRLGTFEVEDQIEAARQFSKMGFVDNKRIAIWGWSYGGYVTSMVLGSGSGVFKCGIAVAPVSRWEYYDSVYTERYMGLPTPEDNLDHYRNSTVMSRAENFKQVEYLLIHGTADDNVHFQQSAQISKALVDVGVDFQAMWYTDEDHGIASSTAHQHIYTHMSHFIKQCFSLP
The test can be described thus: In-vitro dipeptidyl peptidase-4 (DPP4) inhibition assay (inhibitor screening kit). The class given is biochemical. How it is done:
The DPP4 inhibitor activities of the three moracins were determined by using the DPP4 inhibitor screening kit following the manufacturer’s instructions (abcam, Berlin, Germany). The established DPP4 inhibitor sitagliptin served as the positive inhibitor control, whereas assay buffer was only used as the control for DPP4 enzyme activity and was set to 100%. 30 μL of assay buffer and 10 μL human recombinant DPP4 enzyme were mixed in 96-well microtiter plates with 10 μL of 0.1- or 1-mM moracin solutions, 1 mM sitagliptin, or assay buffer. Following 10 min pre-incubation at 37°C, 50 μL of substrate solution was added to each well. The fluorescence signal (excitation wavelength of 360 nm, emission wavelength of 465 nm) was measured after 30 min incubation at 37°C (Tecan Infinite 200 micro-plate reader).
GraphPad Prism, version 5.0 was used for the statistical analysis of data, which were expressed as mean ± standard deviation. Multiple comparisons of IC50 values were carried out by using one-way ANOVA followed by Tukey’s test. For the DPP4 inhibition results, a one-way ANOVA followed by Dunnett’s post-hoc test was conducted to compare the means of treatment groups to that of the control group without inhibitor.

Several values for one entry are separate records, joined by “and”; a condition that tells them apart may be missing. Identical values can stand only once.

For the compound `CC1(C)Oc2cc3oc(-c4cc(O)cc(O)c4)cc3cc2C[C@H]1O` [Compound 2, Moracin P], the concentration for half-maximal inhibition (IC50) (in general, the midpoint of a concentration-inhibition curve) in test [1] was ~17 µM and 16.6 µM; in test [2], more than 300 µM; in test [3] it was 42.9 µM. The half-maximal effective concentration (EC50) (in general, the midpoint of the concentration-response curve) in the test on H9c2 cells is 8.8 µM. Moreover, the “inhibitory effect against PTP1B (in words)” value in test [4] is “marginal inhibitory effect”.
`Oc1cc(O)cc(-c2cc3ccc(O)cc3o2)c1` [Compound 3, Moracin M]: in test [1], the “fold less potent than 1 and 2 (α-glucosidase)” value is given as approximately 2.4 fold. Also, the values for the half-inhibitory concentration (IC50) in test [1], in test [2] and in test [3] were 40.9 µM, more than 300 µM and more than 100 µM, respectively. In addition, the “DPP4 inhibition (in words)” value in test [5] is recorded as “moderate inhibitors”. In addition, in test [5] (at 100 μM), the “residual peptidase (DPP4) activity compared to control” value is 62.7%.
In the case of `CC(C)(O)CCc1c(O)ccc2cc(-c3cc(O)cc(O)c3)oc12` [Compound 1, 5-(6-hydroxy-7-(3-hydroxy-3-methylbutyl)benzofuran-2-yl)benzene-1,3-diol], the half-maximal inhibitory concentration (IC50) was ~17 µM and 16.9 µM in test [1]; more than 300 µM in test [2]. For the same compound, the “DPP4 inhibition (in words)” value in test [5] is “moderate inhibitors”. The inhibition at 100 µM in test [5] (at 100 μM, read-out: inhibitory activity against DPP4) was determined as 15%.

Values taken from paper PMC10935558, “In vitro and in silico studies reveal antidiabetic properties of arylbenzofurans from the root bark of Morus mesozygia Stapf” (Frontiers in Pharmacology, 2024).
